In ChEMBL document CHEMBL1148405, “Prediction of ligand binding affinity and orientation of xenoestrogens to the estrogen receptor by molecular dynamics simulations and the linear interaction energy method” (J Med Chem, 2004):

The compounds below were run against Estrogen receptor (Ovis aries, UniProt P49885+Q9TU15) (assay: Displacement of [3H]-estradiol (E2) from sheep uterine estrogen receptor).
In the case of `Brc1ccccc1-c1ccccc1Br`, the Kd is reported as 0.00016 M l-1.
With `CC(=O)C1CCC2C3CCC4=CC(O)CCC4(C)C3CCC12C` (stereo not given) the Kd was over 0.0003 M l-1.
For `CCC1Cc2cc(O)ccc2C2=C1c1ccc(O)cc1CC2CC` (stereo not given), the Kd was 3e-9 M l-1.
`Oc1ccc2c(cc3ccc4cccc5ccc2c3c45)c1O` was tested, and the Kd was 0.000014 M l-1.
`Oc1ccc2c(ccc3c4ccccc4ccc23)c1O` was tested, and the Kd was 8.8e-7 M l-1.
For `Oc1ccc2ccc3c4ccccc4ccc3c2c1`, the Kd was 4e-6 M l-1.
Work on `Oc1ccc2ccc3c4ccccc4cc4ccc1c2c43` yielded a Kd of 1.1e-6 M l-1.
Work on `Brc1ccc(-c2ccc(Br)cc2)cc1` yielded a Kd of over 0.0003 M l-1.
For `Oc1ccc(C2COc3cc(O)c(O)cc3C2)cc1` (stereo not given), the Kd was 0.000011 M l-1.
`O=c1c(-c2ccc(O)cc2)coc2cc(O)ccc12` [DAIDZEIN] was tested, and the Kd was 5.9e-6 M l-1.
